The results in this text go back to article PMC8403366, “Functional significance of gain-of-function H19 lncRNA in skeletal muscle differentiation and anti-obesity effects” (Genome Medicine, 2021).

For data set [1], the system named is C57BL/6 J mice. Briefly: Echocardiography and diaphragm/aorta histology. It counts as in vivo, mouse. To be noted: vs AGR-Scr. On the procedure:
The heart function of the mice was assessed using functional rodent echocardiography. After their body hair from the neckline to mid chest level was removed with hair removal cream, the mice were anesthetized with 2% isoflurane in the induction chamber and placed in a supine position atop a heating pad to maintain body temperature. The concentration of isoflurane was adjusted to keep a target heart rate of 450 ± 50 beats per minute (bpm). A rectal probe was gently inserted to continuously monitor and adjust body temperature (37.0 °C ± 0.5 °C) via the heating pad. Electrode gel was applied to all four paws, which were then taped to the ECG electrodes. The mice were subjected to transthoracic echo using Vevo 2100 (MS-550D, 22–55 MHz, VisualSonics Inc.).
Tissues were fixed in 10% Neutral Buffered Formalin embedded in paraffin, sectioned at 5 μm, and stained with hematoxylin/eosin (H&E). Detection of H19 expression using a RNAScope probe (designed by Advanced Cell Diagnostics) was performed on mouse tissues with a RNAScope 2.0 High Definition Assay kit according to the manufacturer's instructions (Advanced Cell Diagnostics). The images were visualized with a Zeiss Axioskop2 plus Microscope, and the slides were scanned on the Automated Cellular Image System III for quantification by digital image analysis.

Data set [2] concerns Lep^Ob/Ob mice. Briefly: Leptin deficiency-induced obesity model. It counts as in vivo, mouse. On the procedure:
The mice used in this study were purchased from Jackson Lab as follows: Lep^Ob/Ob (stock 000632), C57BL/6 J (stock 000664). All animals were from a C57BL/6 J background and housed with a 12 h light/12 h dark cycle in the animal facility with free access to water and food. 4 to 10 mice were used in each group. Exact numbers for each experiment are included in the figure legends.
To determine the effects of H19-Rgof with a skeletal muscle enrichment peptide agrin (AGR-H19-Rgof) on WT C57BL/6 J or Lep^Ob/Ob mice, AGR-tagged oligonucleotides were used. The synthesis and sequence information of AGR-tagged RNA oligonucleotides are described in “Synthesis of H19-Rgof mimics, AGR-H19-Rgof mimics, and Pharmacokinetics (PK) studies.” AGR-Scr (conjugated to scramble oligonucleotides), H19-Rgof, or AGR-H19-Rgof mimics were injected at a dose of 1 mg/kg intraperitoneally into 3-week-old male and female mice. For AGR-H19-Rgof treatment in HFD (Cat # D12492, Research Diets, Inc.)-fed mice, male C57BL/6 J mice were fed with a HFD starting at 6 weeks of age. The AGR-H19-Rgof and AGR-Scr mimics were injected at a dose of 0.5 or 1 mg/kg intraperitoneally every other day starting 2 weeks after the initiation of HFD feeding. Body weight was measured weekly. The general health condition, grooming, and behavior of all animals were monitored daily, and injection sites were checked for signs of redness or edema.
Unless otherwise indicated, mice were fasted for 4–6 h, anesthetized with isoflurane, and sacrificed by heart puncture. Tissues were dissected, weighed, and either dipped in liquid nitrogen or fixed for immunohistochemistry analysis. Individual muscle was dissected on one side of the body and weighed. […]
H&E staining was performed in paraffin-embedded livers to visualize the pattern of lipid accumulation and inflammatory status. […] Adipocyte size (from WAT) was determined with ImageJ software. Sections from five animals per group were used and at least 500 adipocytes per animal were measured from multiple fields.

With “N-terminal-ELTNEIPAELTNEIPA-Linker-5'-[2’-F-C][2’-F-U][2’-F-C][2’-F-U][2’-F-U][2’-F-U][2’-F-A][2’-F-U][2’-F-U][2’-F-U][2’-F-C][2’-F-U][2’-F-G][2’-F-A][2’-F-G][2’-F-C][2’-F-U][2’-F-U][2’-F-U][2’-F-C][2’-F-C][2’-F-U][2’-F-A][2’-F-U][2’-F-C][2’-F-U][2’-F-U][2’-F-U][2’-F-C][2’-F-C]-3' [AGR-H19-Rgof]”, in data set [1] (echocardiography, n = 10), the “LV end diastolic diameter, LV stroke volume, LV ejection fraction, LV fractional shortening, interventricular septal end diastole” value was “minimally affected”. Further, in data set [1] (histology, n = 6), the “aorta tunica media and tunica adventitia thickness” value is listed as “unaltered”; the diaphragm thickness result is “increased thickness”. In addition, in data set [2] (Lep^ob/ob mice, Oil Red O, n = 8, 8), the “fatty acid deposition in livers” value is given as “significantly improved”. Moreover, in data set [2] (Lep^ob/ob mice, vs AGR-Scr, n = 10, 9), the muscle mass result was “increased”. The body weight entry in data set [2] (male Lep^ob/ob mice, 8 weeks post-treatment, vs AGR-Scr, n = 10, 9) is reported as “reduced”.
